Data reported in patent publication US20250066388A1, “1,3,4,7-TETRAHYDRO-2H-PYRROLO[3',2':5,6]PYRIDO[2,3-B][1,4]OXAZEPINE BCL-2 INHIBITORS” (AbbVie Inc., priority 2022, published 2025).
pEC50, pKi: −log10 of the molar value.

Assays:
RS4;11 cells = test: Cell viability assay (CellTiter-Glo) in RS4;11 cells; format: cell-based; conditions: 24 hours, 10% Human Serum
Experimental: (§1) The acute lymphoblastic leukemia (ALL) human cell line RS4;11 (ATCC, Manassas VA) was used as the primary human cell line to assess the cellular activity of compound of the present Examples in vitro and their efficacy in vivo. […] The acute lymphoblastic leukemia cell line Molt-4, which is derived from immature T-lymphoid cells (T-ALL), was used as a counter screen assay.
(§2) 3000 Cells (0.1×10^6/mL) were seeded in each well of 384-well plate and were treated for 24 hours in a humidified chamber with 5% CO2. Cell viability was determined by CellTiter-Glo as described by the manufacturer's instructions (Promega Corporation, Madison, WI, USA).

Molt-4 cells = test: Cell viability counter screen (CellTiter-Glo) in Molt-4 cells; format: cell-based; conditions: 24 hours, 10% Human Serum
Experimental: as §1, §2

Bcl-2 protein = Bcl-2 protein (Homo sapiens (Human), UniProt P10415); test: TR-FRET binding assay, Bcl-2; conditions: F-Bak peptide probe, GST-Bcl-2
Experimental: (§3) Determination of the utility of compounds having Formula (I) or Formula (II) as binders to and inhibitors of anti-apoptotic Bcl-2 proteins was performed using the Time Resolved-Fluorescence Resonance Energy Transfer (TR-FRET) Assay. Tb-anti-GST antibody was purchased from Invitrogen (Catalog No. PV4216).
A Bcl-2 human encoding sequence was cloned into a pET41A vector (Novagen). The protein was expressed with E. coli. BL21(DE3)-T1R strain in OETB autoinduction medium at 30° C. for 25 hours. The cell pellets were resuspended in lysis buffer (50 mM Tris, 140 mM NaCl, 1 mM DTT, 10% Glycerol, 2 mM MgCl2, pH 7.3) and lysed with Microfluidizer. The Bcl-2 protein in clarified cell-lysate was purified with affinity chromatography (GST and Ni-NTA). The eluate was loaded onto a Superdex 75 column and further purified with a Q Sepharose column. The protein was purified on a phenyl hydrophobic interaction column and dialyzed in the storage buffer (50 mM Tris, 50 mM NaCl, 2 mM DTT, pH 7.5) and stored at −80° C.
(§4) […] of a protein (Bcl-2 or Bcl-xL)/probe/antibody mixture pre-equilibrated for one hour in assay buffer was added to each well at final concentrations listed in Table 6 below.
(§5) The samples were then mixed on a shaker for 1 minute and equilibrated for an additional 3 hours at room temperature. For each assay plate, a probe/antibody and protein/antibody/probe mixture were included as a negative and a positive control, respectively. Fluorescence was measured on the Envision (Perkin Elmer) using a 340/35 nm excitation filter and 520/525 (F-Bak) and 495/510 nm (Tb-labeled anti-GST antibody) emission filters. Inhibition constants (Ki) were determined using Wang's equation (Wang FEBS Lett. 1995, 360, 111-114). The TR-FRET assay can be performed in the presence of varying concentrations of human serum (HS) to determine apparent half maximal inhibitory concentration (IC50) after HS protein binding.
(§6) Inhibition constants were determined using Wang's equation (Wang FEBS Lett. 1995, 360:111-4).

Bcl-xL protein = Bcl-xL protein (Homo sapiens (Human), UniProt Q07817); test: TR-FRET binding assay, Bcl-xL; conditions: F-Bak peptide probe
Experimental: as §3
A human Bcl-xL encoding sequence was cloned into a pET41A vector. The protein was expressed with E. coli. BL21(DE3)-T1R strain in OETB autoinduction medium at 30° C. for 25 hours. The cell pellets were resuspended in lysis buffer (50 mM Tris, 140 mM NaCl, 1 mM DTT, 10% Glycerol, 0.1% Triton X-100, pH 7.5) and lysed with Microfluidizer. The Bcl-xL protein in clarified cell-lysate was purified with GST affinity chromatography. The eluate was dialyzed in the storage buffer (1×PBS, 10% Glycerol, 2 mM DTT, 1 mM Sodium Azide, pH 7.4) and stored at −80° C.
as §4, §5, §6

Sequence of Bcl-2 protein (P10415 other isoform, or with tags, fused parts or gaps): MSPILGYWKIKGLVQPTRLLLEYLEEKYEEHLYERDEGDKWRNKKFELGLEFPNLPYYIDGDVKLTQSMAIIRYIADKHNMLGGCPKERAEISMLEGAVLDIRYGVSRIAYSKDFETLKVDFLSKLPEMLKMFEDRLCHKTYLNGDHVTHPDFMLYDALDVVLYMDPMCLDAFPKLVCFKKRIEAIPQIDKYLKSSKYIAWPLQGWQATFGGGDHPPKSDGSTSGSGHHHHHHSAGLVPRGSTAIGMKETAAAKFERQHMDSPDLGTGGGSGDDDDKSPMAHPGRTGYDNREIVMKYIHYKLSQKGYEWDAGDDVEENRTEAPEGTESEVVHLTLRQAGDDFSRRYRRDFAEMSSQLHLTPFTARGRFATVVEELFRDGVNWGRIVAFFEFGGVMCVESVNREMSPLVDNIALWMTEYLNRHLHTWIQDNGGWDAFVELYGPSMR
Sequence of Bcl-xL protein (Q07817 other isoform, or with tags, fused parts or gaps): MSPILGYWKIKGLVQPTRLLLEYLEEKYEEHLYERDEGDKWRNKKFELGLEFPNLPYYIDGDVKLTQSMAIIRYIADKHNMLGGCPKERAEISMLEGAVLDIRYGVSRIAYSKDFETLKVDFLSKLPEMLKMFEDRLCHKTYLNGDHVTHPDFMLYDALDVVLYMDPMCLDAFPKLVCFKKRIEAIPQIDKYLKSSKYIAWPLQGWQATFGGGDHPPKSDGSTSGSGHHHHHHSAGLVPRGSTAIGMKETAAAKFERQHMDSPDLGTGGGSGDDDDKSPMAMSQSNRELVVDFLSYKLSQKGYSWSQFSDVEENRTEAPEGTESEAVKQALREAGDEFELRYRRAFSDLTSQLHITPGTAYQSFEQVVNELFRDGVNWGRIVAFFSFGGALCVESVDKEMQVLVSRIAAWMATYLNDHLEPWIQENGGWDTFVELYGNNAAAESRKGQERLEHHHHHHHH

SMILES | pEC50 (RS4;11 cells) | pEC50 (Molt-4 cells) | pKi (Bcl-2 protein) | pKi (Bcl-xL protein)
CC1(C)CC(c2ccc(Cl)cc2)=C2CN3CCN(c4ccc(C(=O)NS(=O)(=O)c5ccc(NC[C@H]6COCCO6)c([N+](=O)[O-])c5)c(N5CCCOc6nc7[nH]ccc7cc65)c4)C[C@H]3COCCCO[C@@H]2C1 [Example 3, N-((4-((((S)-1,4-dioxan-2-yl)methyl)amino)-3-nitrophenyl)sulfonyl)-4-((4aS,10aR)-14-(4-chlorophenyl)-12,12-dimethyl-1,2,4a,5,8,9,10a,11,13,15-decahydro-7H,12H-benzo[f]pyrazino[2,1-c][1,8]dioxa[4]azacycloundecin-3(4H)-yl)-2-(3,4-dihydro-2H-pyrrolo[3′,2′:5,6]pyrido[2,3-b][1,4]oxazepin-1(7H)-yl)benzamide] | 8.87 | 5.85 |  | 
COC[C@]1(F)C[C@H](CNc2ccc(S(=O)(=O)NC(=O)c3ccc(N4CCN5CC6=C(c7ccc(Cl)cc7)CC(C)(C)C[C@H]6OCCCOC[C@@H]5C4)cc3N3CCCOc4nc5[nH]ccc5cc43)cc2[N+](=O)[O-])C1 [Example 47, 4-((4aS,10aR)-14-(4-chlorophenyl)-12,12-dimethyl-1,2,4a,5,8,9,10a,11,13,15-decahydro-7H,12H-benzo[f]pyrazino[2,1-c][1,8]dioxa[4]azacycloundecin-3(4H)-yl)-2-(3,4-dihydro-2H-pyrrolo[3′,2′:5,6]pyrido[2,3-b][1,4]oxazepin-1(7H)-yl)-N-((4-((((1r,3r)-3-fluoro-3-(methoxymethyl)cyclobutyl)methyl)amino)-3-nitrophenyl)sulfonyl)benzamide] | 7.96 | < 5.00 |  | 
CC1(C)CC(c2ccc(Cl)cc2)=C2CN3CCN(c4ccc(C(=O)NS(=O)(=O)c5ccc(OC[C@H]6CC[C@@](C)(O)CC6)c([N+](=O)[O-])c5)c(N5CCCOc6nc7[nH]ccc7cc65)c4)C[C@H]3COCCCO[C@@H]2C1 [Example 49, 4-((4aS,10aR)-14-(4-chlorophenyl)-12,12-dimethyl-1,2,4a,5,8,9,10a,11,13,15-decahydro-7H,12H-benzo[f]pyrazino[2,1-c][1,8]dioxa[4]azacycloundecin-3(4H)-yl)-2-(3,4-dihydro-2H-pyrrolo[3′,2′:5,6]pyrido[2,3-b][1,4]oxazepin-1(7H)-yl)-N-((4-(((1s,4s)-4-hydroxy-4-methylcyclohexyl)methoxy)-3-nitrophenyl)sulfonyl)benzamide] | 7.60 | 7.44 |  | 
C[C@@H]1CC[C@H](CNc2ccc(S(=O)(=O)NC(=O)c3ccc(N4CCN5CC6=C(c7ccc(Cl)cc7)CC(C)(C)C[C@H]6OCCCOC[C@@H]5C4)cc3N3CCCOc4nc5[nH]ccc5cc43)cc2[N+](=O)[O-])OC1 [Example 21, 4-((4aS,10aR)-14-(4-chlorophenyl)-12,12-dimethyl-1,2,4a,5,8,9,10a,11,13,15-decahydro-7H,12H-benzo[f]pyrazino[2,1-c][1,8]dioxa[4]azacycloundecin-3(4H)-yl)-2-(3,4-dihydro-2H-pyrrolo[3′,2′:5,6]pyrido[2,3-b][1,4]oxazepin-1(7H)-yl)-N-((4-((((2R,5R)-5-methyltetrahydro-2H-pyran-2-yl)methyl)amino)-3-nitrophenyl)sulfonyl)benzamide] | 8.31 | 5.48 |  | 
CO[C@]1(CF)C[C@@H](CNc2ccc(S(=O)(=O)NC(=O)c3ccc(N4CCN5CC6=C(c7ccc(Cl)cc7)CC(C)(C)C[C@H]6OCCCOC[C@@H]5C4)cc3N3CCCOc4nc5[nH]ccc5cc43)cc2[N+](=O)[O-])C1 [Example 48, 4-((4aS,10aR)-14-(4-chlorophenyl)-12,12-dimethyl-1,2,4a,5,8,9,10a,11,13,15-decahydro-7H,12H-benzo[f]pyrazino[2,1-c][1,8]dioxa[4]azacycloundecin-3(4H)-yl)-2-(3,4-dihydro-2H-pyrrolo[3′,2′:5,6]pyrido[2,3-b][1,4]oxazepin-1(7H)-yl)-N-((4-((((1r,3r)-3-(fluoromethyl)-3-methoxycyclobutyl)methyl)amino)-3-nitrophenyl)sulfonyl)benzamide] | 7.74 | 5.23 |  | 
CC1(C)CC(c2ccc(Cl)cc2)=C2CN3CCN(c4ccc(C(=O)NS(=O)(=O)c5ccc(OC[C@H]6CC[C@](C)(O)CC6)c([N+](=O)[O-])c5)c(N5CCCOc6nc7[nH]ccc7cc65)c4)C[C@H]3COCCCO[C@@H]2C1 [Example 44, 4-((4aS,10aR)-14-(4-chlorophenyl)-12,12-dimethyl-1,2,4a,5,8,9,10a,11,13,15-decahydro-7H,12H-benzo[f]pyrazino[2,1-c][1,8]dioxa[4]azacycloundecin-3(4H)-yl)-2-(3,4-dihydro-2H-pyrrolo[3′,2′:5,6]pyrido[2,3-b][1,4]oxazepin-1(7H)-yl)-N-((4-(((1r,4r)-4-hydroxy-4-methylcyclohexyl)methoxy)-3-nitrophenyl)sulfonyl)benzamide] | 8.36 | 5.64 |  | 
CC1(C)CC(c2ccc(Cl)cc2)=C2CN3CCN(c4ccc(C(=O)NS(=O)(=O)c5ccc(NCC6CCCCO6)c([N+](=O)[O-])c5)c(N5CCCOc6nc7[nH]ccc7cc65)c4)C[C@H]3COCCCO[C@@H]2C1 (stereo partly drawn) [Example 45, 4-((4aS,10aR)-14-(4-chlorophenyl)-12,12-dimethyl-1,2,4a,5,8,9,10a,11,13,15-decahydro-7H,12H-benzo[f]pyrazino[2,1-c][1,8]dioxa[4]azacycloundecin-3(4H)-yl)-2-(3,4-dihydro-2H-pyrrolo[3′,2′:5,6]pyrido[2,3-b][1,4]oxazepin-1(7H)-yl)-N-((3-nitro-4-(((tetrahydro-2H-pyran-2-yl)methyl)amino)phenyl)sulfonyl)benzamide] | 7.97 | < 5.00 |  | 
CO[C@@H]1CC[C@@H](COc2ccc(S(=O)(=O)NC(=O)c3ccc(N4CCN5CC6=C(c7ccc(Cl)cc7)CC(C)(C)C[C@H]6OCCCOC[C@@H]5C4)cc3N3CCCOc4nc5[nH]ccc5cc43)cc2[N+](=O)[O-])OC1 [Example 51, 4-((4aS,10aR)-14-(4-chlorophenyl)-12,12-dimethyl-1,2,4a,5,8,9,10a,11,13,15-decahydro-7H,12H-benzo[f]pyrazino[2,1-c][1,8]dioxa[4]azacycloundecin-3(4H)-yl)-2-(3,4-dihydro-2H-pyrrolo[3′,2′:5,6]pyrido[2,3-b][1,4]oxazepin-1(7H)-yl)-N-((4-(((2S,5R)-5-methoxytetrahydro-2H-pyran-2-yl)methoxy)-3-nitrophenyl)sulfonyl)benzamide] | 8.02 | < 5.00 |  | 
COC1(CNc2ccc(S(=O)(=O)NC(=O)c3ccc(N4CCN5CC6=C(c7ccc(Cl)cc7)CC(C)(C)C[C@H]6OCCCOC[C@@H]5C4)cc3N3CCCOc4nc5[nH]ccc5cc43)cc2[N+](=O)[O-])CCOCC1 [Example 26, 4-((4aS,10aR)-14-(4-chlorophenyl)-12,12-dimethyl-1,2,4a,5,8,9,10a,11,13,15-decahydro-7H,12H-benzo[f]pyrazino[2,1-c][1,8]dioxa[4]azacycloundecin-3(4H)-yl)-2-(3,4-dihydro-2H-pyrrolo[3′,2′:5,6]pyrido[2,3-b][1,4]oxazepin-1(7H)-yl)-N-((4-(((4-methoxytetrahydro-2H-pyran-4-yl)methyl)amino)-3-nitrophenyl)sulfonyl)benzamide] |  | < 5.00 | 8.68 | 7.39
CO[C@H]1CC[C@H](CNc2ccc(S(=O)(=O)NC(=O)c3ccc(N4CCN5CC6=C(c7ccc(Cl)cc7)CC(C)(C)C[C@H]6OCCCOC[C@@H]5C4)cc3N3CCCOc4nc5[nH]ccc5cc43)cc2Cl)OC1 [Example 34, N-((3-chloro-4-((((2R,5S)-5-methoxytetrahydro-2H-pyran-2-yl)methyl)amino)phenyl)sulfonyl)-4-((4aS,10aR)-14-(4-chlorophenyl)-12,12-dimethyl-1,2,4a,5,8,9,10a,11,13,15-decahydro-7H,12H-benzo[f]pyrazino[2,1-c][1,8]dioxa[4]azacycloundecin-3(4H)-yl)-2-(3,4-dihydro-2H-pyrrolo[3′,2′:5,6]pyrido[2,3-b][1,4]oxazepin-1(7H)-yl)benzamide] |  | < 5.00 | 9.18 | 6.35
